Measured values reported in patent US10519177B2, “Heterocyclic compounds and uses thereof” (Plexxikon Inc., priority 2013, dated 2019).
Like-named read-outs stand apart in the source and are kept apart here.

Tests used:
[1] = molecular target: BRD4-BD1 (44-164) (Homo sapiens (Human), UniProt O60885); test: Alphascreen binding assay BRD4-BD1; conditions: BRD4(1) H4; read-out: Biochemical activity (IC50 μM) BRD4(1) H4
Procedure, shortened: (§1)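 First, compound was preincubated 1 h at room temperature with the His-tagged BRD4 protein (BD1 44-164 or tandem BD12 1-477) and acetylated H4 peptide. Next, donor and acceptor beads were added at 7.5 μg/ml final. After 30 min, AlphaScreen emission was recorded.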

[2] = test system: bromodomain; test: at least one of the bromodomain cell assays of Example 57; type: cell-based; conditions: read-out: IC50 in at least one of the bromodomain cell assays
[3] = molecular target: BRD4-BD12 (1-477) (Homo sapiens (Human), UniProt O60885); test: Alphascreen binding assay BRD4-BD12; conditions: BRD4(1 2) H4; read-out: Biochemical activity (IC50 μM) BRD4(1 2) H4
Procedure, shortened: as §1

[4] = test system: MV-4-11 cells; test: Oncology cell growth assay MV-4-11 (CellTiter Glo); type: cell-based
Procedure, shortened: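 MV-4-11 AML cells (MLL-AF4), 3000 per well, exposed to 8-point 1:3 compound titration from 10 μM top concentration (0.2% DMSO) for 72 h. Viability by CellTiter Glo luminescence, normalized to DMSO controls; pIC50 from four-parameter curve fit.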

[5] = at least one of the bromodomain cell assays described in Example 57
[6] = Homo sapiens, MV4-11, 72 h; read-out: Cell activity (IC50 μM) MV-4-11 3d-Growth

SMILES | IC50 [1] | IC50 [2, 5] | IC50 [3] | IC50 [4, 6] | IC50 [2] | IC50 ([4]; Homo sapiens, MV4-11, 72 h, read-out: Cell activity (IC50 μM) MV-4-11 3d-Growth)
C#Cc1cn(C(C)c2ccccc2)c2cc(-c3c(C)noc3C)cnc12 (stereo not shown) [P-0289, 4-[3-ethynyl-1-(1-phenylethyl)pyrrolo[3,2-b]pyridin-6-yl]-3,5-dimethyl-isoxazole] | < 1 µM | < 10000 nM | < 1 µM | < 1 µM | – | –
Cc1noc(C)c1-c1cnc2c(-c3cnn(C)c3)cn(Cc3ncccn3)c2c1 [P-0325, 3,5-dimethyl-4-[3-(1-methylpyrazol-4-yl)-1-(pyrimidin-2-ylmethyl)pyrrolo[3,2-b]pyridin-6-yl]isoxazole] | < 1 µM | < 10000 nM | < 1 µM | < 1 µM | – | –
Cc1noc(C)c1-c1cnc2c(-c3ccc(C(=O)O)cc3)cn(C(C)c3ccccc3)c2c1 (stereo not shown) [P-0273, 4-[6-(3,5-dimethylisoxazol-4-yl)-1-(1-phenylethyl)pyrrolo[3,2-b]pyridin-3-yl]benzoic acid] | < 1 µM | < 10000 nM | < 1 µM | < 1 µM | – | –
Cc1noc(C)c1-c1cnc2c(-c3ccc(N)nc3)cn(C(C)c3ccccc3)c2c1 (stereo not shown) [P-0276, 5-[6-(3,5-dimethylisoxazol-4-yl)-1-(1-phenylethyl)pyrrolo[3,2-b]pyridin-3-yl]pyridin-2-amine] | < 1 µM | < 10000 nM | < 1 µM | < 1 µM | – | –
Cc1n[nH]c(C)c1-c1cnc2ccn(CC3CCC(F)(F)CC3)c2c1 [P-0285, l-[(4,4-difluorocyclohexyl)methyl]-6-(3,5-dimethyl-1H-pyrazol-4-yl)pyrrolo[3,2-b]pyridine] | 1 to 10 µM | < 10000 nM | 10 to 200 µM | 1 to 10 µM | – | –
[2H]C([2H])(C1CCC(F)(F)CC1)n1cc(C#CCO)c2ncc(-c3c(C)noc3C)cc21 [P-0370, 3-[1-[dideuterio-(4,4-difluorocyclohexyl)methyl]-6-(3,5-dimethylisoxazol-4-yl)pyrrolo[3,2-b]pyridin-3-yl]prop-2-yn-1-ol] | < 1 µM | < 10000 nM | < 1 µM | < 1 µM | – | –
Cc1noc(C)c1-c1cnc2c(Br)cn(CC3CCC(F)(F)CC3)c2c1 [P-0281, 4-[3-bromo-1-[(4,4-difluorocyclohexyl)methyl]pyrrolo[3,2-b]pyridin-6-yl]-3,5-dimethyl-isoxazole] | < 1 µM | < 10000 nM | < 1 µM | < 1 µM | – | –
Oc1ccc(-c2cnc3ccn(CC4CCC(F)(F)CC4)c3c2)cn1 [P-0284, 5-[1-[(4,4-difluorocyclohexyl)methyl]pyrrolo[3,2-b]pyridin-6-yl]pyridin-2-ol] | < 1 µM | < 10000 nM | 1 to 10 µM | 1 to 10 µM | – | –
Cc1noc(C)c1-c1cnc2c(C#CCO)cn(C(C)c3ccccc3)c2c1 (stereo not shown) [P-0302, 3-[6-(3,5-dimethylisoxazol-4-yl)-1-(1-phenylethyl)pyrrolo[3,2-b]pyridin-3-yl]prop-2-yn-1-ol] | < 1 µM | < 10000 nM | < 1 µM | < 1 µM | – | –
Cc1noc(C)c1-c1cnc2c(-c3cnn(Cc4ccccc4)c3)cn(CC3CCC(F)(F)CC3)c2c1 [P-0299, 4-[3-(1-benzylpyrazol-4-yl)-1-[(4,4-difluorocyclohexyl)methyl]pyrrolo[3,2-b]pyridin-6-yl]-3,5-dimethyl-isoxazole] | < 1 µM | < 10000 nM | < 1 µM | < 1 µM | – | –
Cc1noc(C)c1-c1cnc2c(-c3cnn(CC(F)(F)F)c3)cn(CC3(F)CCC(F)(F)CC3)c2c1 [P-0321, 3,5-dimethyl-4-(1-[(1,4,4-trifluorocyclohexyl)methyl]-3-[1-(2,2,2-trifluoroethyl)pyrazol-4-yl]pyrrolo[3,2-b]pyridin-6-yl]isoxazole] | < 1 µM | < 10000 nM | 1 to 10 µM | < 1 µM | – | –
COC(=O)c1ccc(-c2cn(CC3CCC(F)(F)CC3)c3cc(-c4c(C)noc4C)cnc23)cc1 [P-0330, methyl 4-[1-[(4,4-difluorocyclohexyl)methyl]-6-(3,5-dimethylisoxazol-4-yl)pyrrolo[3,2-b]pyridin-3-yl]benzoate] | < 1 µM | < 10000 nM | < 1 µM | < 1 µM | – | –
Cc1nnn(C)c1-c1cnc2c(-c3cnn(CC(F)(F)F)c3)cn(CC3CCC(F)(F)CC3)c2c1 [P-0311, 1-[(4,4-difluorocyclohexyl)methyl]-6-(3,5-dimethyltriazol-4-yl)-3-[1-(2,2,2-trifluoroethyl)pyrazol-4-yl]pyrrolo[3,2-b]pyridine] | < 1 µM | < 10000 nM | 1 to 10 µM | < 1 µM | – | –
Cc1oncc1-c1cnc2ccn(CC3CCC(F)(F)CC3)c2c1 [P-0283, 4-[1-[(4,4-difluorocyclohexyl)methyl]pyrrolo[3,2-b]pyridin-6-yl]-5-methyl-isoxazole] | 1 to 10 µM | < 10000 nM | 1 to 10 µM | 1 to 10 µM | – | –
Cc1noc(C)c1-c1cnc2c(-c3cnn(C(F)F)c3)cn(Cc3ccccc3)c2c1 [P-0326, 4-[1-benzyl-3-[1-(difluoromethyl)pyrazol-4-yl]pyrrolo[3,2-b]pyridin-6-yl]-3,5-dimethyl-isoxazole] | < 1 µM | < 10000 nM | < 1 µM | < 1 µM | – | –
Cc1noc(C)c1-c1cnc2c(-c3ccc(O)nc3)cn(C(C)c3ccccc3)c2c1 (stereo not shown) [P-0270, 5-[6-(3,5-dimethylisoxazol-4-yl)-1-(1-phenylethyl)pyrrolo[3,2-b]pyridin-3-yl]pyridin-2-ol] | < 1 µM | < 10000 nM | < 1 µM | < 1 µM | – | –
[2H]C([2H])(C1CC(F)(F)C1)n1cc(-c2cnn(CC(F)(F)F)c2)c2ncc(-c3c(C)noc3C)cc21 [P-0257, 4-[1-[dideuterio-(3,3-difluorocyclobutyl)methyl]-3-[1-(2,2,2-trifluoroethyl)pyrazol-4-yl]pyrrolo[3,2-b]pyridin-6-yl]-3,5-dimethyl-isoxazole] | < 1 µM | < 10000 nM | < 1 µM | < 1 µM | – | –
Cc1noc(C)c1-c1cnc2c(-c3cnn(CC(F)(F)F)c3)cn(CC3CC(F)(F)C3)c2c1 [P-0305, 4-[1-[(3,3-difluorocyclobutyl)methyl]-3-[1-(2,2,2-trifluoroethyl)pyrazol-4-yl]pyrrolo[3,2-b]pyridin-6-yl]-3,5-dimethyl-isoxazole] | < 1 µM | < 10000 nM | < 1 µM | < 1 µM | – | –
Cc1noc(C)c1-c1cnc2c(-c3cnn(CC(F)(F)F)c3)cn(Cc3ccccc3)c2c1 [P-0317, 4-[1-benzyl-3-[1-(2,2,2-trifluoroethyl)pyrazol-4-yl]pyrrolo[3,2-b]pyridin-6-yl]-3,5-dimethyl-isoxazole] | < 1 µM | < 10000 nM | < 1 µM | < 1 µM | – | –
Cc1noc(C)c1-c1cnc2c(-c3cnn(CC(C)C)c3)cn(CC3CCC(F)(F)CC3)c2c1 [P-0297, 4-[1-[(4,4-difluorocyclohexyl)methyl]-3-(1-isobutylpyrazol-4-yl)pyrrolo[3,2-b]pyridin-6-yl]-3,5-dimethyl-isoxazole] | < 1 µM | < 10000 nM | < 1 µM | < 1 µM | – | –
Cc1noc(C)c1-c1cnc2c(-c3cnn(C4COC4)c3)cn(CC3CCC(F)(F)CC3)c2c1 [P-0295, 4-[1-[(4,4-difluorocyclohexyl)methyl]-3-[1-(oxetan-3-yl)pyrazol-4-yl]pyrrolo[3,2-b]pyridin-6-yl]-3,5-dimethyl-isoxazole] | < 1 µM | < 10000 nM | < 1 µM | < 1 µM | – | –
Cc1noc(C)c1-c1cnc2c(-c3ccc(C(=O)O)cc3)cn(CC3CCC(F)(F)CC3)c2c1 [P-0324, 4-[1-[(4,4-difluorocyclohexyl)methyl]-6-(3,5-dimethylisoxazol-4-yl)pyrrolo[3,2-b]pyridin-3-yl]benzoic acid] | < 1 µM | < 10000 nM | < 1 µM | < 1 µM | – | –
Cc1noc(C)c1-c1cnc2c(C#C[Si](C)(C)C)cn(C(C)c3ccccc3)c2c1 (stereo not shown) [P-0288, 2-[6-(3,5-dimethylisoxazol-4-yl)-1-(1-phenylethyl)pyrrolo[3,2-b]pyridin-3-yl]ethynyl-trimethyl-silane] | < 1 µM | – | < 1 µM | – | < 10000 nM | < 1 µM
Cc1noc(C)c1-c1cnc2ccn(CC3CCC(F)(F)CC3)c2c1 [P-0282, 4-[1-[(4,4-difluorocyclohexyl)methyl]pyrrolo[3,2-b]pyridin-6-yl]-3,5-dimethyl-isoxazole] | < 1 µM | < 10000 nM | 1 to 10 µM | < 1 µM | – | –
Cc1noc(C)c1-c1cnc2c(-c3ccnc(C4CC4)c3)cn(C(C)c3ccccc3)c2c1 (stereo not shown) [P-0268, 4-[3-(2-cyclopropyl-4-pyridyl)-1-(1-phenylethyl)pyrrolo[3,2-b]pyridin-6-yl]-3,5-dimethyl-isoxazole] | < 1 µM | < 10000 nM | < 1 µM | < 1 µM | – | –
